Columns and labels:
[1] = target: T1, rANP-1 (AlaNyl aminopeptidase 1) (Caenorhabditis elegans, UniProt Q22317); experiment: p-nitroanilide release, absorbance at […] nm; type: biochemical; conditions: refolded fragment
T1 construct: gene anp-1
T1 sequence (Q22317 93-559): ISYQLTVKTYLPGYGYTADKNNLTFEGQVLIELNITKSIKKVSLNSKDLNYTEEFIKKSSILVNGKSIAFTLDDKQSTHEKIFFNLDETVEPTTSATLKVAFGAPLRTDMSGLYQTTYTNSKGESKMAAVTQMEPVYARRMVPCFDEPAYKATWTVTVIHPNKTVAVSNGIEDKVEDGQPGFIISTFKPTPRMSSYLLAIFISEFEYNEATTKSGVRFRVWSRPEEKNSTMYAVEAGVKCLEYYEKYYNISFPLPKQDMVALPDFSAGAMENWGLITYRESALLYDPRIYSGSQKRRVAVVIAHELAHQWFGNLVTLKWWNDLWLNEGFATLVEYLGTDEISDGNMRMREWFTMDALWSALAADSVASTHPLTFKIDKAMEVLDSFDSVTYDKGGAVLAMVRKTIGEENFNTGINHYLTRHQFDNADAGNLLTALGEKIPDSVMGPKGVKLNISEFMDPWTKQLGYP

[2] = target: T1, rANP-1 (AlaNyl aminopeptidase 1); experiment: L-Leu-pNA hydrolysis, absorbance at […] nm; type: biochemical; conditions: inhibitor concentration not given; pre-incubation with inhibitor; substrate L-Leu-pNA; refolded fragment

Row | SMILES | p-nitroanilide release, absorbance at 405 nm [1] | % reduction of activity [2]
1 | CC(C)C[C@H](N)C(=O)Nc1ccc([N+](=O)[O-])cc1 [L-leucine-p-nitroanilide] | Aminopeptidase activity of rANP-1 protein was measured using L-Leu-pNA as substrate | –
2 | CC(C)C[C@@H](N)[C@H](O)C(=O)N[C@H](C(=O)N[C@H](C(=O)N[C@@H](CC(=O)O)C(=O)O)C(C)C)C(C)C [amastatin] | – | ~ 55%
3 | CC(C)C[C@H](NC(=O)[C@@H](O)[C@H](N)Cc1ccccc1)C(=O)O [bestatin] | – | ~ 46%

Reference: article PMC6857582, “Characterization of aminopeptidase encoding gene anp-1 and its association with development in Caenorhabditis elegans” (PeerJ, 2019)
